Laboratory results as given in patent US4387106A, “Method of treating atherosclerosis with di(aralkyl)ureas and di(aralkyl)thioureas” (American Cyanamid Company, priority 1982, dated 1983).

These molecules were tested on Cholesterol absorption (assay: not given). Conditions: po, 0.03 % of diet, 336 h.

| SMILES | Result (inhibition of cholesterol absorption: lowering of serum or liver cholesterol relative to control) |
| --- | --- |
| O=C(Nc1ccc(Cl)cc1Cl)N(Cc1ccccc1)Cc1ccccc1 [1,1-Dibenzyl-3-(2,4-dichlorophenyl)urea] | Active |
| O=C(Nc1ccccc1C(F)(F)F)N(Cc1ccccc1)Cc1ccccc1 [1,1-Dibenzyl-3-(2-trifluoromethylphenyl)urea] | Active |
| O=C(Nc1ccc(Oc2ccccc2)cc1)N(Cc1ccccc1)Cc1ccccc1 [1,1-Dibenzyl-3-(4-phenoxyphenyl)urea] | Active |
| CCOC(=O)c1ccc(NC(=O)N(Cc2ccccc2)Cc2ccccc2)cc1 [1,1-Dibenzyl-3-(4-carboethoxyphenyl)urea] | Active |
| O=C(Nc1cccc(Br)c1)N(Cc1ccccc1)Cc1ccccc1 [1,1-Dibenzyl-3-(3-bromophenyl)urea] | Active |
| Cc1ccc(NC(=S)N(Cc2ccccc2)Cc2ccccc2)cc1Cl [1,1-Dibenzyl-3-(3-chloro-4-methylphenyl)thiourea] | Active |
| CCCCc1ccc(NC(=O)N(Cc2ccccc2)Cc2ccccc2)cc1 [1,1-Dibenzyl-3-(4-n-butylphenyl)urea] | Active |

The molecules below were run against T1, fatty acyl CoA:cholesterol acyl transferase (ACAT) (Rattus norvegicus, UniProt O70536) (assay: In vitro inhibition of fatty acyl CoA:cholesterol acyl transferase (ACAT), rat adrenal supernatant). Conditions: final concentration 5.2 μg./ml., pH 7.4, 37° C., oleoyl CoA (14C).
T1 construct: The supernatant, containing the microsomal fraction, served as the source of the cholesterol-esterifying enzyme; from tissue; host or cells: rat adrenals, homogenate, 1000 x g supernatant containing the microsomal fraction
T1 sequence (O70536 1-545): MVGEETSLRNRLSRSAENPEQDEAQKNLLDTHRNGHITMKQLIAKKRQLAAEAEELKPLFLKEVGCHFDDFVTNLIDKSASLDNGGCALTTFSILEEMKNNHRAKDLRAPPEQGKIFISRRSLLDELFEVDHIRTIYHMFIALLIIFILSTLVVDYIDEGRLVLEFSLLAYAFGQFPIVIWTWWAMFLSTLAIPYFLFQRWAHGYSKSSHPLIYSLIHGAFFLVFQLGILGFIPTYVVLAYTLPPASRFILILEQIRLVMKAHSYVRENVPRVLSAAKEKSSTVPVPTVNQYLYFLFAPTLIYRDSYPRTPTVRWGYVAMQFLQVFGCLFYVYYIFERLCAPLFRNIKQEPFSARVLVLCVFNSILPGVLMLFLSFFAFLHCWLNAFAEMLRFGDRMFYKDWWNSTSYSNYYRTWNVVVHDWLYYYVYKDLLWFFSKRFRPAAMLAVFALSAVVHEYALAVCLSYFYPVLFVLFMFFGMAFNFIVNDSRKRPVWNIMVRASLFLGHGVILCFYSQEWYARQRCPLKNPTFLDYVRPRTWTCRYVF
Type: biochemical
Experimental: The compounds were tested for their ability to inhibit ACAT according to the following procedure:
Rat adrenals were homogenized in 0.2 M monobasic potassium phosphate buffer, pH 7.4, and centrifuged at 1000 times gravity for 15 minutes at 5° C. The supernatant, containing the microsomal fraction, served as the source of the cholesterol-esterifying enzyme, fatty acyl CoA:cholesterol acyl transferase (ACAT). A mixture comprising 50 parts of adrenal supernatant, 10 parts of albumin (BSA) (50 mg./ml.), 3 parts of test compound (final concentration 5.2 μg./ml.) and 500 parts of buffer was preincubated at 37° C. for 10 minutes. After treatment with 20 parts of oleoyl CoA (^14 C--0.4 μCi) the mixture was incubated at 37° C. for 10 minutes. A control mixture, omitting the test compound, was prepared and treated in the same manner. The lipids from the incubation mixture were extracted into an organic solvent and separated by thin-layer chromatography. The cholesteryl ester fraction was counted in a scintillation counter.

| SMILES | inhibition at 5.2 µg/mL |
| --- | --- |
| O=C(Nc1ccc(Cl)cc1Cl)N(Cc1ccccc1)Cc1ccccc1 [1,1-Dibenzyl-3-(2,4-dichlorophenyl)urea] | 83.3% |
| O=C(Nc1ccc(Br)cc1)N(Cc1ccccc1)Cc1ccccc1 [1,1-Dibenzyl-3-(4-bromophenyl)urea] | 79.9% |
| Cc1ccc(NC(=O)N(Cc2ccccc2)Cc2ccccc2)cc1 [1,1-Dibenzyl-3-(4-methylphenyl)urea] | 89.8% |
| O=C(Nc1ccc(Cl)cc1)N(Cc1ccccc1)Cc1ccccc1 [1,1-Dibenzyl-3-(4-chlorophenyl)urea] | 77.5% |
| O=C(Nc1ccccc1Cl)N(Cc1ccccc1)Cc1ccccc1 [1,1-Dibenzyl-3-(2-chlorophenyl)urea] | 87.8% |
| O=C(Nc1ccc(Br)cc1Br)N(Cc1ccccc1)Cc1ccccc1 [1,1-Dibenzyl-3-(2,4-dibromophenyl)urea] | 81.9% |
| O=C(Nc1ccc(Cl)c(Cl)c1)N(Cc1ccccc1)Cc1ccccc1 [1,1-Dibenzyl-3-(3,4-dichlorophenyl)urea] | 94.5% |
| CCCCOc1ccc(NC(=O)N(Cc2ccccc2)Cc2ccccc2)cc1 [1,1-Dibenzyl-3-(4-n-butoxyphenyl)urea] | 90.2% |
| O=C(Nc1c(Cl)cccc1Cl)N(Cc1ccccc1)Cc1ccccc1 [1,1-Dibenzyl-3-(2,6-dichlorophenyl)urea] | 88.6% |
| CC(C)c1cccc(C(C)C)c1NC(=O)N(Cc1ccccc1)Cc1ccccc1 [1,1-Dibenzyl-3-(2,6-isopropylphenyl)urea, 1,1-Dibenzyl-3-(2,6-diisopropylphenyl)urea] | 59.1% |
| O=C(Nc1ccc(I)cc1)N(Cc1ccccc1)Cc1ccccc1 [1,1-Dibenzyl-3-(4-iodophenyl)urea] | 85.2% |
| CCOC(=O)c1ccc(NC(=O)N(Cc2ccccc2)Cc2ccccc2)cc1 [1,1-Dibenzyl-3-(4-carboethoxyphenyl)urea] | 94.9% |
| O=C(Nc1cccc(Br)c1)N(Cc1ccccc1)Cc1ccccc1 [1,1-Dibenzyl-3-(3-bromophenyl)urea] | 91.9% |
| CCOc1ccc(NC(=O)N(Cc2ccccc2)Cc2ccccc2)cc1 [1,1-Dibenzyl-3-(4-ethoxyphenyl)urea] | 95.8% |
| COc1cccc(NC(=O)N(Cc2ccccc2)Cc2ccccc2)c1 [1,1-Dibenzyl-3-(3-methoxyphenyl)urea] | 87% |
| Cc1ccccc1NC(=O)N(Cc1ccccc1)Cc1ccccc1 [1,1-Dibenzyl-3-(2-methylphenyl)urea] | 77% |
| CSc1ccc(NC(=O)N(Cc2ccccc2)Cc2ccccc2)cc1 [1,1-Dibenzyl-3-(4-methylthiophenyl)urea] | 67.1% |
| O=C(Nc1cccc([N+](=O)[O-])c1)N(Cc1ccccc1)Cc1ccccc1 [1,1-Dibenzyl-3-(3-nitrophenyl)urea] | 81.3% |
| O=C(Nc1cccc(Cl)c1Cl)N(Cc1ccccc1)Cc1ccccc1 [1,1-Dibenzyl-3-(2,3-dichlorophenyl)urea] | 79.7% |

Next, values leading:

| inhibition at 5.2 µg/mL | SMILES |
| --- | --- |
| 71.6% | COc1ccc(NC(=O)N(Cc2ccccc2)Cc2ccccc2)cc1 [1,1-Dibenzyl-3-(4-methoxyphenyl)urea] |
| 94.2% | O=C(Nc1cccc(C(F)(F)F)c1)N(Cc1ccccc1)Cc1ccccc1 [1,1-Dibenzyl-3-(3-trifluoromethylphenyl)urea] |
| 73.6% | CCc1cccc(C)c1NC(=O)N(Cc1ccccc1)Cc1ccccc1 [1,1-Dibenzyl-3-(6-ethyl-2-methylphenyl)urea] |
| 87.9% | COc1ccc(OC)c(NC(=O)N(Cc2ccccc2)Cc2ccccc2)c1 [1,1-Dibenzyl-3-(2,5-dimethoxyphenyl)urea] |
| 68.4% | O=C(Nc1ccccc1C(F)(F)F)N(Cc1ccccc1)Cc1ccccc1 [1,1-Dibenzyl-3-(2-trifluoromethylphenyl)urea] |
| 94.2% | O=C(Nc1cccc(Cl)c1)N(Cc1ccccc1)Cc1ccccc1 [1,1-Dibenzyl-3-(3-chlorophenyl)urea] |
| 72% | O=C(Nc1cc(F)ccc1F)N(Cc1ccccc1)Cc1ccccc1 [1,1-Dibenzyl-3-(2,5-difluorophenyl)urea] |
| 93.9% | O=C(Nc1ccccc1Br)N(Cc1ccccc1)Cc1ccccc1 [1,1-Dibenzyl-3-(2-bromophenyl)urea] |
| 86.1% | O=C(Nc1cc(Cl)cc(Cl)c1)N(Cc1ccccc1)Cc1ccccc1 [1,1-Dibenzyl-3-(3,5-dichlorophenyl)urea] |
| 83.8% | Cc1c(Cl)cccc1NC(=O)N(Cc1ccccc1)Cc1ccccc1 [1,1-Dibenzyl-3-(3-chloro-2-methylphenyl)urea] |
| 88.6% | FC(F)(F)c1cccc(NC(=S)N(Cc2ccccc2)Cc2ccccc2)c1 [1,1-Dibenzyl-3-(3-trifluoromethylphenyl)thiourea] |
| 94.3% | O=C(Nc1ccc(Oc2ccccc2)cc1)N(Cc1ccccc1)Cc1ccccc1 [1,1-Dibenzyl-3-(4-phenoxyphenyl)urea] |
| 14.1% | O=C(O)c1ccc(NC(=O)N(Cc2ccccc2)Cc2ccccc2)cc1 [1,1-Dibenzyl-3-(4-carboxyphenyl)urea] |
| 94.1% | Cc1ccc(NC(=S)N(Cc2ccccc2)Cc2ccccc2)cc1Cl [1,1-Dibenzyl-3-(3-chloro-4-methylphenyl)thiourea] |
| 82.4% | O=C(Nc1cc(Cl)ccc1Cl)N(Cc1ccccc1)Cc1ccccc1 [1,1-Dibenzyl-3-(2,5-dichlorophenyl)urea] |
| 90% | O=C(Nc1cccc2ccccc12)N(Cc1ccccc1)Cc1ccccc1 [1,1-Dibenzyl-3-(2,3-dibenzophenyl)urea] |
| 88.9% | Cc1cccc(NC(=O)N(Cc2ccccc2)Cc2ccccc2)c1 [1,1-Dibenzyl-3-(3-methylphenyl)urea] |
| 52.2% | O=C(Nc1ccc([N+](=O)[O-])cc1)N(Cc1ccccc1)Cc1ccccc1 [1,1-Dibenzyl-3-(4-nitrophenyl)urea] |
| 91.3% | CCCCc1ccc(NC(=O)N(Cc2ccccc2)Cc2ccccc2)cc1 [1,1-Dibenzyl-3-(4-n-butylphenyl)urea] |
| 89.1% | Cc1ccc(C)c(NC(=O)N(Cc2ccccc2)Cc2ccccc2)c1 [1,1-Dibenzyl-3-(2,5-dimethylphenyl)urea] |
| 83.9% | Cc1cccc(Cl)c1NC(=O)N(Cc1ccccc1)Cc1ccccc1 [1,1-Dibenzyl-3-(6-chloro-2-methylphenyl)urea] |
| 92% | O=C(Nc1ccc(Cl)c(C(F)(F)F)c1)N(Cc1ccccc1)Cc1ccccc1 [1,1-Dibenzyl-3-(4-chloro-3-trifluoromethylphenyl)urea] |
| 72% | CCc1cccc(CC)c1NC(=O)N(Cc1ccccc1)Cc1ccccc1 [1,1-Dibenzyl-3-(2,6-diethylphenyl)urea] |
| 76.6% | CCOC(=O)c1ccc(NC(=S)N(Cc2ccccc2)Cc2ccccc2)cc1 [1,1-Dibenzyl-3-(4-carboethoxyphenyl)thiourea] |
| 56.1% | Cc1cccc(C)c1NC(=O)N(Cc1ccccc1)Cc1ccccc1 [1,1-Dibenzyl-3-(2,6-dimethylphenyl)urea] |
| 80.7% | CC(=O)c1cccc(NC(=O)N(Cc2ccccc2)Cc2ccccc2)c1 [1,1-Dibenzyl-3-(3-acetylphenyl)urea] |
| 90.4% | O=C(Nc1ccccc1)N(Cc1ccccc1)Cc1ccccc1 [1,1-Dibenzyl-3-phenylurea, 1,1-Dibenzyl-3-phenyl urea] |
| 91% | COc1ccccc1NC(=O)N(Cc1ccccc1)Cc1ccccc1 [1,1-Dibenzyl-3-(2-methoxyphenyl)urea] |
| 90.2% | Cc1cc(C)cc(NC(=O)N(Cc2ccccc2)Cc2ccccc2)c1 [1,1-Dibenzyl-3-(3,5-dimethylphenyl)urea] |

Same assay, conditions: pH 7.4, final concentration 5.2 μg./ml., pH 7.4, 37° C., oleoyl CoA (14C)

| SMILES | inhibition at 5.2 µg/mL |
| --- | --- |
| Cc1ccc(NC(=O)N(Cc2ccccc2)Cc2ccccc2)cc1 [1,1-Dibenzyl-3-(4-methylphenyl)urea] | 86.5% |
| O=C(Nc1ccc2ccccc2c1)N(Cc1ccccc1)Cc1ccccc1 [1,1-Dibenzyl-3-(3,4-dibenzophenyl)urea] | 97.3% |
